Assay [1] concerns the target T1, Heat shock protein HSP90 (Homo sapiens) (UniProt P07900+P08238). As to the kind of experiment: Inhibition of HSP90 in human H1299 cells assessed as reduction in HIF-1alpha at 100 nM incubated for 72 hrs and subsequently incubated under hypoxic conditions for 12 hrs by Western blot analysis relative to control. In kind it is cell-based. The settings on record: values are per cent of control. In general terms: A western blot detects proteins with antibodies after separation by electrophoresis.

Assay [2] has as its target T1, Heat shock protein HSP90 (Homo sapiens). The experiment in a line: Inhibition of HSP90 in human H1299 cells assessed as reduction in HIF-1alpha at 10 nM incubated for 72 hrs and subsequently incubated under hypoxic conditions for 12 hrs by Western blot analysis relative to control. The class given is cell-based. The settings on record: values are per cent of control.

Assay [3] shares this target. The experiment in a line: Inhibition of HSP90 in human H1299 cells assessed as reduction in HIF-1alpha incubated for 72 hrs and subsequently incubated under hypoxic conditions for 12 hrs by Western blot analysis relative to control. In kind it is cell-based.
For assay [4], the system named is MDA-MB-231. As to the kind of experiment: Cytotoxicity against human MDA-MB-231 cells at 10 uM after 72 hrs by MTS assay. The class given is functional, cell-based. On the technique in general: Tetrazolium dyes change colour on reduction, which living cells bring about.
A further assay has as its system 4T1. The experiment in a line: Cytotoxicity against mouse 4T1 cells at 10 uM after 72 hrs by MTS assay. The class given is functional, cell-based.
The test system of assay [5] is MDA-MB-231. The experiment in a line: Induction of morphological changes in human MDA-MB-231 cells assessed as cytoplasmic shrinkage at 2 to 10 uM after 72 hrs by phase contrast microscopic analysis. The class given is functional, cell-based.
The test system of assay [6] is MDA-MB-231. The experiment in a line: Inhibition of HSP90 in human MDA-MB-231 cells assessed as reduction in phosphorylated-AKT/total-AKT ratio at 5 to 10 uM after 72 hrs by immunoblot analysis. In kind it is cell-based.
The test system of assay [7] is MDA-MB-231. The experiment in a line: Inhibition of HSP90 in human MDA-MB-231 cells assessed as reduction in phosphorylated-MEK/total-MEK ratio at 5 to 10 uM after 72 hrs by immunoblot analysis. The class given is cell-based. The settings on record: Hofmanni bacterium.
The test system of assay [8] is MDA-MB-231. The experiment in a line: Inhibition of HSP90 in human MDA-MB-231 cells assessed as reduction in phosphorylated-STAT3/total-STAT3 ratio at 5 to 10 uM after 72 hrs by immunoblot analysis. The class given is cell-based.
For assay [9], the system named is MDA-MB-231. The experiment in a line: Effect on ERK protein level in human MDA-MB-231 cells at 2 to 10 uM after 72 hrs by immunoblot analysis. In kind it is functional, cell-based.
Assay [10] concerns MDA-MB-231. The experiment in a line: Inhibition of ERK phosphorylation in human MDA-MB-231 cells at 5 to 10 uM after 72 hrs by immunoblot analysis. The class given is cell-based.

Calls of active or inactive are those of the source. The rule behind the calls is not given here.

With `COc1ccc(N(CCN2CCNCC2)C(=O)c2ccc3c(c2OC)C=CC(C)(C)O3)cc1OC`, the response, % of control was 51.9% in assay [1] and 60.6% in assay [2]. The inhibition result in assay [3] was “Dose-dependent effect”. For the same compound, the result in the assay on MDA-MB-231 [4], in the assay with 4T1 and in the assay with MDA-MB-231 [5] was Active. Also, the inhibition result in the assay on MDA-MB-231 [6], in the assay with MDA-MB-231 [7], in the assay on MDA-MB-231 [8] and in the assay with MDA-MB-231 [10] was “Active” throughout. The result in the assay with MDA-MB-231 [9] was inactive.

The values are drawn from ChEMBL document CHEMBL4480433, “Investigation of B,C-ring truncated deguelin derivatives as heat shock protein 90 (HSP90) inhibitors for use as anti-breast cancer agents” (Bioorg Med Chem, 2019).
